Reference: patent publication US8247444B2, “Anti-tumor effect of dimeric phthalide compound” (priority 2007, dated 2012)
Values after ≈ are worked out from the molar mass of the structure shown.

Columns and labels:
MCF-7/Adr = test: Growth inhibition of sensitive and drug-resistant cell lines (IC50), MCF-7/Adr; assay type: cell-based; details: Homo sapiens, NCI/ADR-RES; MCF-7/Adr drug-resistant cells
Description: (§1) HL-60/ADR, MCF-7/ADR, K562/ADR, Bel-7402/5-FU, KBV200, SMMC-7721/Adr were respectively chemotherapeutics Adriamycin (ADR), 5-Fluorouracil (5-FU) or vincristine (VCR) drug-resistant sub-stains of HL-60, MCF-7, K562, Bel-7402, KB, SMMC-7721 cells (all from Chinese Academy of Medical Sciences). NB4-R2 was all trans-retinoic acid (ATRA) drug-resistant sub-stain (from Pathophysiology Research Department of Shanghai JiaoTong University). The main drug-resistance mechanism of K562/ADR was high expression of P-glycoprotein (P-gp), along with increased expression of Bcl-2. In addition to high expression of P-gp, the drug-resistance mechanism of MCF-7/ADR also related to the high expression of Breast Cancer Resistant Protein (BCRP). The main drug-resistance mechanism of HL-60/ADR was high expression of Multidrug Resistance Protein 1 (MRP1), along with high expression of Bcl-2, Bcl-xL. […] The main drug-resistance mechanism of KBV200 was high expression of P-gp and its increased activity. The drug-resistance mechanism of NB4-R2 on ATRA was mutation in the RAR gene locus.
(§2) The human lung cancer cell H1299 and H446, glioma cell U251 and U87MG, and human hepatic cellular cancer Bel-7402 cell in logarithmic growth phase were digested with pancreatic enzyme, and then suspended into DMEM or RPMI1640 containing 10% fetal bovine serum. The leukemic cells Kasumi-1 need no digestion, and were suspended into RPMI1640 containing 10% fetal bovine serum directly after centrifugalization. The cell density was adjusted to 1×10^4 cells/ml through cell counting, and the cell suspensions were seeded into a 96-well plate respectively, 100 μl/well, totally 6 groups of cells. The adherent cells were cultured overnight, the suspended cells were added different concentration gradients of dimeric phthalide compounds (S1-S6) directly, n=6 for each concentration of a single agent. The final volume was 200 ul, and the balance was supplemented with the culture medium. The plate was then incubated for 68 hours in 37° C., saturated humidity, 5% CO2 cell incubator. The medium was aspirated and 72 μl/well fresh culture medium was added. 8 μl […] (CCK-8) was added into each well and cultured for 2 hours. The absorbance was measured at 450 nm. The results were calculated as the 50% inhibiting drug concentration, i.e. IC50, using Sigmoidal simulation function by software Origin 7.0.
(§3) The cancer cells (various cell lines as shown in table 1 or FIG. 3) were seeded 1×10^3 cells per well into a 96-well plate. The suspended cells were added different concentration of dimeric phthalide compounds (S1-S6) directly, and the adherent cells were cultured overnight and added different concentration of dimeric phthalide compounds (S1-S6). The different concentration of dimeric phthalide compounds were divided into 10 groups: 0, 0.1, 0.5, 1, 5, 10, 20, 40, 80, 160 μg/ml, n=6 for each concentration.
(§4) According to the method described in Example 2, […] was detected and IC50 was calculated. The experiment was repeated for 3 times.
(§5) The growth inhibition effects of dimers of S1-S6 on its sensitive cell lines as well as the drug-resistant sub-strains (IC50 (μg/ml)) were shown in table 1 and FIG. 3.

[1] = test system: H1299, H446, U251, U87MG, Bel-7402 and Kasumi-1 cells; test: Inhibition effects on proliferation (CCK-8), various human cancer cells; assay type: cell-based; details: FIG. 2, 68 h
Experimental: as §2

SMMC-7721 = test: Growth inhibition of sensitive and drug-resistant cell lines (IC50), SMMC-7721; assay type: cell-based; details: Homo sapiens; SMMC-7721 cells
Experimental: (§6) In the following Examples, the cell lines used were H1299, H446 (human lung cancer cell line), KB (human oral cavity carcinoma cell line), NB4, HL-60 (human leukemic cell line), U251 ? U87MG (human glioblastoma cell line), MCF-7 (human breast carcinoma cell line), Bel-7402 and SMMC7721 (human hepatic cellular cancer cell line), SW620 (human colon carcinoma cell line), HDF (human dermis fibroblast), HUVEC (human umbilical vein endothelial cell line) and Kasumi-1 (human acute myeloid leukaemia cell line), all from American Type Culture Collection (ATCC).
as §2, §3, §4, §5

KBv200 = test: Growth inhibition of sensitive and drug-resistant cell lines (IC50), KBv200; assay type: cell-based; details: Homo sapiens; KBv200 drug-resistant cells
Description: as §1, §2, §3, §4, §5

HUVEC = test: Vascular endothelial cell inhibition assay (CCK-8), HUVEC; assay type: cell-based; details: Homo sapiens, 72 h
Experimental: (§7) 2×10^3 cells were seeded into a 96-well plate and cultured for 24 h. S1-S6 of different concentrations (0, 0.01, 0.1, 0.5, 1, 2.5, 5, 10, 20, 40, 80, 160 μg/ml, respectively) were added and incubated for 72 h, n=6 for each concentration. The inhibition of cell proliferation was detected by CCK-8 assay, the results were calculated as IC50, as describe in Example 3.

Bel-7402 [2] = test: Growth inhibition of sensitive and drug-resistant cell lines (IC50), Bel-7402; assay type: cell-based; details: Homo sapiens; Bel-7402 cells, Table 1
Experimental: as §6, §2, §3, §4, §5

K562 = test: Growth inhibition of sensitive and drug-resistant cell lines (IC50), K562; assay type: cell-based; details: Homo sapiens; K562 cells
Experimental: as §2, §3, §4, §5

[3] = test system: U87MG, H1299 and HL-60 heterograft tumors; test: Inhibition of the growth of nude mouse heterograft tumors; assay type: in vivo, Balb/c male nude mice; details: intraperitoneal; S4 25 mg/kg, S6 30 mg/kg, S1 32 mg/kg, BP 250 mg/kg; 4 weeks; FIG. 9
Experimental: Experimental grouping: Balb/c male nude mice were used, each weighted 18-22 g, and three assays were performed. The mice were seeded with U87MG, H1299 and HL-60 respectively. The animals were divided into three groups for each experiment, one as control, one was administered with the dimeric phthalide compounds, and one was administered with monomers of phthalide compound, 6 animals for each group.
For the group which was administered with monomers of phthalide compound, we used n-butylidenephthalide (BP) (Sigma) as active ingredient for tumor suppression, the compound had the structure as follows:
Experimental Process The H1299, HL-60 or U87MG cells growing in logarithmic phase were used. […] When the tumors had gown into 0.1-0.5 cm^3 (about 7-10 days), the animals were intraperitoneal injected with the dimeric phthalide compound S4 (25 mg/kg), S6 (30 mg/kg), S1 (32 mg/kg), each 200 μl; for the group of monomers of phthalide compound, the mice were intraperitoneal injected with n-butylidenephthalide (250 mg/kg); the control group was administered with equal volume of vehicle. The animals were sacrificed after 4 weeks, and the subcutaneous tumors were separated. Photographs were taken (FIG. 9A) and the tumors were weighted (FIG. 9B).

MCF-7 = test: Growth inhibition of sensitive and drug-resistant cell lines (IC50), MCF-7; assay type: cell-based; details: Homo sapiens, MCF7; MCF-7 cells
Experimental: as §6, §2, §3, §4, §5

HL-60, H1299, U251 cells = test: Inducing cell death (Rh123/PI flow cytometry); assay type: cell-based, human; details: 48 h, FIG. 5
Experimental: S1-S6 of different concentrations (as shown in FIG. 5) were added into HL-60, H1299, U251 cells under good growing conditions. The cells were cultured for 48 h, and collected. The cells were incubated with rhodamine 123 (Rh123) of the final concentration of 10 μg/ml for 20 min at 37° C., and then washed with pre-cooled PBS twice. The cells were suspended into PBS, and PI of final concentration of 25 μg/ml was added. After incubated in the dark at room temperature for 15 min, mitochondria membrane potential and PI positive cells were detected by flow cytometry, the death rate was calculated as the rate of PI positive cells.

[4] = test system: secretion of VEGF in H1299 cell; test: VEGF in supernatant of tumor cell H1299 culture (VEGF-ELISA); assay type: cell-based, human; details: H1299, compound 5 μg/ml, 24 h; for inhibition at 5 µg/mL: Homo sapiens, NCI-H1299, read-out: Inhibition rate of VEGF secretion
Experimental: Assay of vascular endothelial cell growth factor (VEGF) in supernatant of tumor cell H1299 culture. The cell was seeded into a 24-well plate (n=3 for each sample). H1299 cell was treated with S1-S6 respectively and cultured for 24 h. The culture supernatants from each group were collected and operated according to the instruction of VEGF-ELISA kit (JIN MEI Corporation). The samples were added, incubated, washed and detected at 450 nm for OD values of each sample. The standard curve was obtained by using different dose of VEGF standards and the secretory volume of VEGF in the supernatant was calculated.

Bel-7402 [5] = test: Vascular endothelial cell inhibition assay (CCK-8), Bel-7402; assay type: cell-based; details: Homo sapiens, 72 h, CCK-8, Table 2
Experimental: as §7

HDF = test: Vascular endothelial cell inhibition assay (CCK-8), HDF; assay type: cell-based; details: Homo sapiens, 72 h
Experimental: as §7

KB [6] = test: Growth inhibition of sensitive and drug-resistant cell lines (IC50), KB; assay type: cell-based; details: Homo sapiens; KB cells, Table 1
Experimental: as §6, §2, §3, §4, §5

Bel-7402/5-Fu = test: Growth inhibition of sensitive and drug-resistant cell lines (IC50), Bel-7402/5-Fu; assay type: cell-based; details: Homo sapiens, Bel7402/5-FU; Bel-7402/5-Fu drug-resistant cells
Description: as §1, §2, §3, §4, §5

K562/Adr = test: Growth inhibition of sensitive and drug-resistant cell lines (IC50), K562/Adr; assay type: cell-based; details: Homo sapiens; K562/Adr drug-resistant cells
Description: as §1, §2, §3, §4, §5

[7] = test system: drug-resistant cells of different mechanisms and sensitive cells; test: Overcome drug resistance: efficacy on drug-resistant cells compared with sensitive cells; assay type: cell-based, human; details: table 1 and FIG. 3
Experimental: as §3, §4

KB [8] = test: Vascular endothelial cell inhibition assay (CCK-8), KB; assay type: cell-based; details: Homo sapiens, 72 h, CCK-8, Table 2
Experimental: as §7

SMMC-7721/Adr = test: Growth inhibition of sensitive and drug-resistant cell lines (IC50), SMMC-7721/Adr; assay type: cell-based; details: Homo sapiens; SMMC-7721/Adr drug-resistant cells
Description: as §1, §2, §3, §4, §5

Row | Compound | IC50 (MCF-7/Adr) [µg/mL] | inhibition effect on proliferation of various human cancer cells [1] | IC50 (SMMC-7721) [µg/mL] | IC50 (KBv200) [µg/mL] | IC50 (HUVEC) [µg/mL] | IC50 (Bel-7402 [2]) [µg/mL] | IC50 (K562) [µg/mL] | tumor inhibition effect [3] | IC50 (MCF-7) [µg/mL] | inducing decrease of cell mitochondria membrane potential and cell death (HL-60, H1299, U251 cells) | Supernatant VEGF [4] [ng/ml/10^6 cells] | inhibition at 5 µg/mL [4] [%] | IC50 (Bel-7402 [5]) [µg/mL] | IC50 (HDF) [µg/mL] | IC50 (KB [6]) [µg/mL] | IC50 (Bel-7402/5-Fu) [µg/mL] | IC50 (K562/Adr) [µg/mL] | efficacy on drug-resistant cells compared with sensitive cells [7] | IC50 (KB [8]) [µg/mL] | IC50 (SMMC-7721/Adr) [µg/mL]
1 | CCC/C=C1\OC(=O)C2=C1CCC1C2[C@@]23CC[C@@H]1C=C2C(=O)O/C3=C\CCC (stereo partly drawn) [S4] | 20.3 ± 2.12 (≈ 53.4 µM) | best inhibition effects on most of the cancer cells | 19.4 ± 3.12 (≈ 51 µM) | 17.4 ± 2.03 (≈ 45.9 µM) | 4.14 (≈ 10.9 µM) | 16.4 ± 1.94 (≈ 43.2 µM) | 11.5 ± 0.831 (≈ 30.3 µM) | significant tumor inhibition effects | 18.4 ± 2.8 (≈ 48.5 µM) | best effect of inducing cell death | 234.00 ± 34.03 | 37.3 | 30.4 (≈ 79.9 µM) | 82.2 (≈ 216 µM) | 15.5 ± 3.22 (≈ 40.8 µM) | 17.6 ± 3.68 (≈ 46.1 µM) | 12.4 ± 1.01 (≈ 32.5 µM) | the best effect | 21.4 (≈ 56.2 µM) | 22.7 ± 2.55 (≈ 59.6 µM)
2 | CCC/C=C1\OC(=O)C2=CC3CC[C@]21C1C2=C(CC[C@@H]31)C(CCCC)OC2=O (stereo partly drawn) [S5] | 29.2 ± 2.14 (≈ 76.4 µM) |  | 36 ± 3.92 (≈ 94.2 µM) | 19.8 ± 1.05 (≈ 51.8 µM) | 4.04 (≈ 10.6 µM) | 30.2 ± 2.17 (≈ 79 µM) | 18.4 ± 0.87 (≈ 48.2 µM) |  | 28.5 ± 1.91 (≈ 74.6 µM) |  | 236.32 ± 24.02 | 36.7 | 29.7 (≈ 77.6 µM) | 75.8 (≈ 198 µM) | 16.4 ± 2.05 (≈ 42.9 µM) | 28.1 ± 4.02 (≈ 73.4 µM) | 18.3 ± 0.762 (≈ 47.9 µM) |  | 36 (≈ 94.1 µM) | 35.2 ± 2.33 (≈ 92.1 µM)
3 | CCC/C=C1\OC(=O)C2=C1CCC1C2C2(OC(=O)C3=C2CCC=C3)C1(C)CCC (stereo not drawn) [S6] | 24.5 ± 2.09 (≈ 62.1 µM) |  | 24 ± 1.87 (≈ 60.8 µM) | 12.2 ± 2.15 (≈ 31 µM) | 4.27 (≈ 10.8 µM) | 22.6 ± 3.01 (≈ 57.3 µM) | 10.3 ± 0.597 (≈ 26.2 µM) | significant tumor inhibition effects | 22.4 ± 2.03 (≈ 56.9 µM) |  | 237.25 ± 22.38 | 36.4 | 30 (≈ 76.1 µM) | 136 (≈ 344 µM) | 13 ± 2.5 (≈ 32.9 µM) | 24 ± 2.66 (≈ 60.8 µM) | 11.8 ± 0.995 (≈ 29.9 µM) | the best effect | 26.3 (≈ 66.6 µM) | 23 ± 2.76 (≈ 58.2 µM)
